US11180504B2 (ORCHID PHARMA LTD., priority 2016, dated 2021)
≈ marks a conversion by molar mass, not a printed value. Read-outs that look alike come from different tables or passages of the source.

Legend:
[1] = tested on: methicillin-sensitive Staphylococcus aureus; assay: MIC by broth micro-dilution (CLSI), methicillin-sensitive S. aureus; assay type: cell-based; conditions: MSSA S. aureus ATCC29213
[2] = tested on: carbapenemase producing K. pneumoniae; assay: MIC by broth micro-dilution (CLSI), carbapenemase producing K. pneumoniae; assay type: cell-based, Klebsiella pneumoniae
[3] = tested on: carbapenem sensitive Pseudomonas aeruginosa; assay: MIC by broth micro-dilution (CLSI), carbapenem sensitive P. aeruginosa; assay type: cell-based
[4] = tested on: carbapenem sensitive Escherichia coli; assay: MIC by broth micro-dilution (CLSI), carbapenem sensitive E. coli; assay type: cell-based
[5] = Staphylococcus aureus, ATCC 29213 / MSSA, read-out: MIC
[6] = Klebsiella pneumoniae, ATCCBAA1705, KPC-2 K. pneumoniae ATCC BAA-1705, read-out: MIC
[7] = Pseudomonas aeruginosa, ATCC27853, Meropenem susceptible P. aeruginosa ATCC27853, read-out: MIC
[8] = Escherichia coli, ATCC25922, ESBL −ve E. coli ATCC25922, read-out: MIC

Structure (SMILES) | MIC [1, 5] [mg/L] | MIC [2, 6] [mg/L] | MIC [3, 7] [mg/L] | MIC [4, 8] [mg/L] | MIC [1] [mg/L] | MIC ([2]; KPC-2 K. pneumoniae ATCC BAA-1705) [mg/L] | MIC ([3]; Meropenem susceptible P. aeruginosa ATCC27853) [mg/L] | MIC ([4]; ESBL −ve E. coli ATCC25922) [mg/L]
C[C@@H](NC(=O)Cn1cnnn1)[C@H]1C(=O)N2C(C(=O)O)=C(S[C@@H]3CN[C@H](C(=O)N4CCCC45CCNCC5)C3)[C@H](C)[C@H]12 [Example 477, (4R,5S,6R)-3-((3S,5S)-5-(1,8-diazaspiro[4.5]decane-1-carbonyl)pyrrolidin-3-ylthio)-6-((R)-1-(2-(1H-tetrazol-1-yl)acetamido)ethyl)-4-methyl-7-oxo-1-azabicyclo[3.2.0]hept-2-ene-2-carboxylic acid] | 2 (≈ 3.4 µM) | 2 (≈ 3.4 µM) | 64 (≈ 109 µM) | 0.5 (≈ 0.851 µM) | – | – | – | –
C[C@@H](NC(=O)Cn1cnnn1)[C@H]1C(=O)N2C(C(=O)O)=C(S[C@@H]3CN[C@H](C(=O)N4CCC(CCN)CC4)C3)[C@H](C)[C@H]12 [Example 480] | 2 (≈ 3.47 µM) | 1 (≈ 1.74 µM) | 2 (≈ 3.47 µM) | 0.25 (≈ 0.434 µM) | – | – | – | –
C[C@@H](NC(=O)Cn1cnnn1)[C@H]1C(=O)N2C(C(=O)O)=C(S[C@@H]3CN[C@H](C(=O)N4CCn5c(cnc5N)C4)C3)[C@H](C)[C@H]12 [Example 481, (4R,5S,6R)-6-((R)-1-(2-(1H-tetrazol-1-yl)acetamido)ethyl)-3-((3S,5S)-5-(3-amino-5,6,7,8-tetrahydroimidazo[1,5-a]pyrazine-7-carbonyl)pyrrolidin-3-ylthio)-4-methyl-7-oxo-1-azabicyclo[3.2.0]hept-2-ene-2-carboxylic acid] | 2 (≈ 3.42 µM) | 2 (≈ 3.42 µM) | 2 (≈ 3.42 µM) | 0.125 (≈ 0.213 µM) | – | – | – | –
C[C@@H](NC(=O)Cn1cnnn1)[C@H]1C(=O)N2C(C(=O)O)=C(S[C@@H]3CN[C@H](C(=O)Nc4cccc(C(=O)N5CCNCC5)c4)C3)[C@H](C)[C@H]12 [Example 483, (4R,5S,6R)-6-((R)-1-(2-(1H-tetrazol-1-yl)acetamido)ethyl)-4-methyl-7-oxo-3-((3S,5S)-5-(3-(piperazine-1-carbonyl)phenylcarbamoyl)pyrrolidin-3-ylthio)-1-azabicyclo[3.2.0]] | 4 (≈ 6.13 µM) | 4 (≈ 6.13 µM) | 128 (≈ 196 µM) | 0.5 (≈ 0.766 µM) | – | – | – | –
C[C@@H](NC(=O)Cn1cnnn1)[C@H]1C(=O)N2C(C(=O)O)=C(S[C@@H]3CN[C@H](C(=O)Nc4ccc(CN)cc4)C3)[C@H](C)[C@H]12 [Example 484, (4R,5S,6R)-6-((R)-1-(2-(1H-tetrazol-1-yl)acetamido)ethyl)-3-((3S,5S)-5-(4-(aminomethyl)phenyl-carbamoyl)-pyrrolidin-3-ylthio)-4-methyl-7-oxo-1-azabicyclo[3.2.0]hept-2-ene-2-carboxylic acid] | 2 (≈ 3.51 µM) | 4 (≈ 7.02 µM) | 32 (≈ 56.2 µM) | 1 (≈ 1.76 µM) | – | – | – | –
C[C@@H](NC(=O)Cn1cnnn1)[C@H]1C(=O)N2C(C(=O)O)=C(S[C@@H]3CN[C@H](C(=O)N4CCN[C@@H](CN)C4)C3)[C@H](C)[C@H]12 [Example 485, (4R,5S,6R)-6-((R)-1-(2-(1H-tetrazol-1-yl)acetamido)ethyl)-3-((3S,5S)-5-((S)-3-(aminomethyl)piperazine-1-carbonyl)pyrrolidin-3-ylthio)-4-methyl-7-oxo-1-azabicyclo[3.2.0]hept-2-ene-2-carboxylic acid] | 8 (≈ 14.2 µM) | 4 (≈ 7.11 µM) | 4 (≈ 7.11 µM) | 0.5 (≈ 0.889 µM) | – | – | – | –
C[C@@H](NC(=O)C(F)F)[C@H]1C(=O)N2C(C(=O)O)=C(S[C@@H]3CN[C@H](C(=O)N4CCC5CNCCC54)C3)[C@H](C)[C@H]12 (stereo partly drawn) [Example 486, (4R,5S,6R)-6-((R)-1-(2,2-difluoroacetamido)ethyl)-4-methyl-3-((3S,5S)-5-(octahydro-1H-pyrrolo[3,2-c]pyridine-1-carbonyl)pyrrolidin-3-ylthio)-7-oxo-1-azabicyclo[3.2.0]hept-2-ene-2-carboxylic acid] | 2 (≈ 3.69 µM) | 8 (≈ 14.8 µM) | 64 (≈ 118 µM) | 0.5 (≈ 0.923 µM) | – | – | – | –
C[C@@H](NC(=O)Cn1cnnn1)[C@H]1C(=O)N2C(C(=O)O)=C(S[C@@H]3CN[C@H](C(=O)N4CCC5NCCCC5C4)C3)[C@H](C)[C@H]12 (stereo partly drawn) [Example 487, (4R,5S,6R)-6-((R)-1-(2-(1H-tetrazol-1-yl)acetamidin)ethyl)-3-((3S,5S)-5-(decahydro-1,6-naphthyridine-6-carbonyl)pyrrolidin-3-ylthio)-4-methyl-7-oxo-1-azabicyclo[3.2.0]hept-2-ene-2-carboxylic acid] | – | – | – | – | 2 (≈ 3.4 µM) | 1 (≈ 1.7 µM) | 8 (≈ 13.6 µM) | 0.25 (≈ 0.425 µM)
C[C@@H](NC(=O)Cn1cnnn1)[C@H]1C(=O)N2C(C(=O)O)=C(S[C@@H]3CN[C@H](C(=O)N4CCC5CN(CCN)CCC54)C3)[C@H](C)[C@H]12 (stereo partly drawn) [Example 489, (4R,5S,6R)-6-((R)-1-(2-(1H-tetrazol-1-yl)acetamido)ethyl)-3-((3S,5S)-5-(5-(2-aminoethyl)octahydro-1H-pyrrolo[3,2-c]pyridine-1-carbonyl)pyrrolidin-3-ylthio)-4-methyl-7-oxo-1-azabicyclo[3.2.0]hept-2-ene-2-carboxylic acid] | 4 (≈ 6.49 µM) | 1 (≈ 1.62 µM) | 16 (≈ 25.9 µM) | 0.5 (≈ 0.811 µM) | – | – | – | –
C[C@@H](NC(=O)Cn1cnnn1)[C@H]1C(=O)N2C(C(=O)O)=C(S[C@@H]3CN[C@H](C(=O)N4C[C@@H](N)C[C@H]4CF)C3)[C@H](C)[C@H]12 [Example 491, (4R,5S,6R)-6-((R)-1-(2-(1H-tetrazol-1-yl)acetamido)ethyl)-3-((3S,5S)-5-((2S,4S)-4-amino-2-(fluoromethyl)pyrrolidine-1-carbonyl)pyrrolidin-3-ylthio)-4-methyl-7-oxo-1-azabicyclo[3.2.0]hept-2-eoe-2-carboxylic acid] | 4 (≈ 7.07 µM) | 2 (≈ 3.54 µM) | 8 (≈ 14.1 µM) | 0.25 (≈ 0.442 µM) | – | – | – | –
C[C@@H](NC(=O)Cn1cnnn1)[C@H]1C(=O)N2C(C(=O)O)=C(S[C@@H]3CN[C@H](C(=O)N4CC[C@@H](NC(=O)CCN)C4)C3)[C@H](C)[C@H]12 [Example 492, (4R,5S,6R)-6-((R)-1-(2-(1H-tetrazol-1-yl)acetamido)ethyl)-3-((3S,5S)-5-((R)-3-(3-aminopropanamido)pyrrolidine-1-carbonyl)pyrrolidin-3-ylthio)-4-methyl-7-oxo-1-azabicyclo[3.2.0]hept-2-ene-2-carboxylic acid] | 4 (≈ 6.61 µM) | 2 (≈ 3.31 µM) | 2 (≈ 3.31 µM) | 0.5 (≈ 0.827 µM) | – | – | – | –
CO[C@H]1CN(C(=O)[C@@H]2C[C@H](SC3=C(C(=O)O)N4C(=O)[C@H]([C@@H](C)NC(=O)Cn5cnnn5)[C@H]4[C@H]3C)CN2)C[C@@H]1N [Example 494, (4R,5S,6R)-6-((R)-1-(2-(1H-tetrazol-1-yl)acetamido)ethyl)-3-((3S,5S)-5-((3S,4S)-3-amino-4-methoxypyrrolidine-1-carbonyl)pyrrolidin-3-ylthio)-4-methyl-7-oxo-1-azabicyclo[3.2.0]hept-2-ene-2-carboxylic acid] | 8 (≈ 14.2 µM) | 4 (≈ 7.1 µM) | 16 (≈ 28.4 µM) | 0.25 (≈ 0.444 µM) | – | – | – | –
C[C@@H](NC(=O)Cn1cnnn1)[C@H]1C(=O)N2C(C(=O)O)=C(S[C@@H]3CN[C@H](C(=O)N4C[C@@H](F)[C@@H](N)C4)C3)[C@H](C)[C@H]12 [Example 498, (4R,5S,6R)-6-((R)-1-(2-(1H-tetrazol-1-yl)acetamido)ethyl)-3-((3S,5S)-5-((3S,4R)-3-amino-4-fluoropyrrolidine-1-carbonyl)pyrrolidin-3-ylthio)-4-methyl-7-oxo-1-azabicyclo[3.2.0]hept-2-ene-2-carboxylic acid] | 2 (≈ 3.63 µM) | 2 (≈ 3.63 µM) | 8 (≈ 14.5 µM) | 0.125 (≈ 0.227 µM) | – | – | – | –
C[C@@H](NC(=O)Cn1cnnn1)[C@H]1C(=O)N2C(C(=O)O)=C(S[C@@H]3CN[C@H](C(=O)N4CCC5(CCNCC5)C4)C3)[C@H](C)[C@H]12 [Example 499, (4R,5S,6R)-6-((R)-1-(2-(1H-tetrazol-1-yl)acetamido)ethyl)-3-((3S,5S)-5-(2,8-diazaspiro[4.5]decane-2-carbonyl)pyrrolidin-3-ylthio)-4-methyl-7-oxo-1-azabicyclo[3.2.0]hept-2-ene-2-carboxylic acid] | 2 (≈ 3.4 µM) | 1 (≈ 1.7 µM) | 1 (≈ 1.7 µM) | 0.25 (≈ 0.425 µM) | – | – | – | –
C[C@@H](NC(=O)Cn1cnnn1)[C@H]1C(=O)N2C(C(=O)O)=C(S[C@@H]3CN[C@H](C(=O)N4CC[C@@H](C(C)(C)N)C4)C3)[C@H](C)[C@H]12 [Example 500, (4R,5S,6R)-6-((R)-1-(2-(1H-tetrazol-1-yl)acetamido)ethyl)-3-((3S,5S)-5-((R)-3-(2-aminopropan-2-yl)pyrrolidine-1-carbonyl)pyrrolidin-3-ylthio)-4-methyl-7-oxo-1-azabicyclo[3.2.0]hept-2-ene-2-carboxylic acid] | 2 (≈ 3.47 µM) | 2 (≈ 3.47 µM) | 2 (≈ 3.47 µM) | 0.25 (≈ 0.434 µM) | – | – | – | –
C[C@@H](NC(=O)Cn1cnnn1)[C@H]1C(=O)N2C(C(=O)O)=C(S[C@@H]3CN[C@H](C(=O)N4CC5(CCNC5)C4)C3)[C@H](C)[C@H]12 [Example 501, (4R,5S,6R)-6-((R)-1-(2-(1H-tetrazol-1-yl)acetamido)ethyl)-3-((3S,5S)-5-(2,6-diazaspiro[3,4]octane-2-carbonyl)pyrrolidin-3-ylthio)-4-methyl-7-oxo-1-azabicyclo[3.2.0]hept-2-ene-2-carboxylic acid] | 4 (≈ 7.15 µM) | 1 (≈ 1.79 µM) | 1 (≈ 1.79 µM) | 0.25 (≈ 0.447 µM) | – | – | – | –
C[C@@H](NC(=O)Cn1cnnn1)[C@H]1C(=O)N2C(C(=O)O)=C(S[C@@H]3CN[C@H](C(=O)N4CCC5(CNC5)C4)C3)[C@H](C)[C@H]12 [Example 502, (4R,5S,6R)-6-((R)-1-(2-(1H-tetrazol-1-yl)acetamido)ethyl)-3-((3S,5S)-5-(2,6-diazaspiro[3.4]octane-6-carbonyl)pyrrolidin-3-ylthio)-4-methyl-7-oxo-1-azabicyclo[3.2.0]hept-2-ene-2-carboxylic acid] | 4 (≈ 7.15 µM) | 1 (≈ 1.79 µM) | 2 (≈ 3.57 µM) | 0.25 (≈ 0.447 µM) | – | – | – | –
